Test [1] in a line: Ketone hydrogenation, general procedure (vial). As to conditions: 4′-chloropropiophenone, 0.1 mol % catalyst, 50 °C, 16 h.
Test [2] in a line: Ketone hydrogenation, general procedure (vial). The settings on record: isobutyrophenone; 0.001 equiv. catalyst, 50 °C, 16 h, 50 bar H2; chiral HPLC, (S).
Test [3] is described as follows: Ketone hydrogenation, general procedure (vial). The settings on record: propiophenone; 0.001 equiv. catalyst, 50 °C, 16 h, 50 bar H2, K2CO3, ethanol; chiral HPLC, (S).
The nature of test [4]: Ketone hydrogenation, general procedure (vial). The settings on record: 4′-methoxypropiophenone, 0.001 equiv. catalyst, 50 °C, 16 h.
The nature of test [5]: Ketone hydrogenation, general procedure (vial). The settings on record: 2′,6′-dichloro-3′-fluoroacetophenone, 0.1 mol % catalyst, 50 °C, 16 h.
Test [6] can be described thus: Ketone hydrogenation, general procedure (vial). As to conditions: 2′-fluoroacetophenone; 0.1 mol % catalyst, 50 °C, 16 h, 50 bar H2, K2CO3, ethanol.
Test [7] in a line: Hydrogenation of acetophenone, microwave vials in autoclave (vial method). As to conditions: for e.e.: 50 bar H2, chiral HPLC, (S).
Test [8] can be described thus: Ketone hydrogenation, general procedure (vial). As to conditions: cyclohexylphenylketone; 0.1 mol % catalyst, 50 °C, 16 h, 50 bar H2, K2CO3, ethanol.
Test [9] in a line: Ketone hydrogenation, general procedure (vial). As to conditions: 2′-chloroacetophenone; 0.1 mol % catalyst, 50 °C, 16 h, 50 bar H2, K2CO3, ethanol.
For test [10] the following is noted: for Conversion (%) / TOF: acetophenone, gas uptake, 20 bar H2, 50 °C; for TOF: at 20% conversion.
Experimental: The vessel was sealed and pressurised with hydrogen gas (5 bar) and vented. This was repeated twice. The degassed ethanol solution was added via an injection port and the vessel sealed and pressurised with hydrogen gas (20 bar) and vented. This was repeated twice. The pressure was set to 2 bar and the mixture heated to 50° C. at which time the pressure was increased to 20 bar and the experiment started. Gas uptake was monitored by reduction of the pressure in the burette. […] The vessel was cooled to room temperature, vented and the content concentrated to dryness and analysed by ^1H-NMR to confirm full conversion. The uptake curve was converted to conversion by dividing the gas uptake at a time-point by total uptake and multiplied by 100 to get percentage conversion. Substrate and product concentrations could be calculated, from which the turnover frequency (TOF) could be calculated. The TOF was reported at 20% conversion to minimise temperature influence of the vessel setup.
A short description of test [11]: Ketone hydrogenation, general procedure (vial). The settings on record: 2′-methoxyacetophenone; 0.1 mol % catalyst, 50 °C, 16 h, 50 bar H2, K2CO3, ethanol.

Like-named read-outs stand apart in the source and are kept apart here. Bounds are passed on as bounds.

“[(Rc,Sp)—N-2-picolynyl-1-(-2-bis(4-methoxy-3,5-dimethylphenyl)-phosphino)ferrocenylethylamine]-κN^1-κN^2-κ^P-tricarbonyl manganese (I) bromide [compound 2]”: the e.e. in [1] (50 bar H2, chiral HPLC, (S)) is given as 80%; in [5] (50 bar H2, chiral HPLC, (S)), 82%. Moreover, the ee turned out to be 90% in test [2]; 76% in test [3]; 70% in [4] (50 bar H2, chiral HPLC, (S)). In test [4] (50 bar H2, K2CO3, ethanol), the “conversion to product (NMR analysis)” value is listed as 96%.
As for “[(Rc,Sp)—N-(4-(dimethylamino)pyridine-2-methyl)-1-(˜2-bis(4-methoxy-3,5-dimethylphenyl)phosphino)ferrocenylethylamine]-κN^1-κN^2-κ^P-tricarbonyl manganese (I) bromide [compound 6]”, the Conversion in test [1] (50 bar H2, K2CO3, ethanol) is recorded as over 99%; in test [6] it was over 99%; in test [7] (0.01 mol % catalyst, 65 °C, 24 h, 50 bar H2) it was over 99%; in [7] (0.02 mol % catalyst, 60 °C, 16 h, 50 bar H2) it was over 99%; in test [7] (0.1 mol % catalyst, 50 °C, 16 h, 50 bar H2, K2CO3, ethanol), over 99%; in test [8] it was over 99%. Also, the Conversion was over 99% in test [9]; over 99% in test [11]; over 99% in test [5] (50 bar H2, K2CO3, ethanol). Further, the e.e. in test [7] (0.01 mol % catalyst, 65 °C, 24 h) was 57% (S); in [7] (0.02 mol % catalyst, 60 °C, 16 h) it was 51% (S). In addition, the “Conversion (%)” value in test [7] (vial method, 0.1 mol % catalyst, 2 h, 50 bar H2) was found to be 56.5%; in [10] (0.05 mol % catalyst, 12 h) it was 100%; in [10] (0.1 mol % catalyst, ethanol, run to completion), 100%. The TOF in test [7] (vial method, 0.1 mol % catalyst, calculated after 2 h, 50 bar H2) is 283 h⁻¹; in test [10] (0.05 mol % catalyst) it was 237 h⁻¹; in [10] (0.1 mol % catalyst) it was 230 h⁻¹. The “turnover frequency (TOF) with 6 relative to 7” value in [10] (hydrogenation of acetophenone, Table 2) was “at least 3.5 times”.

(Values after patent publication US12281058B2, “Manganese catalysts and their use in hydrogenation of ketones” (priority 2019, dated 2025).)
